Laboratory results: paper PMC9127750, “Structure-based design of CDC42 effector interaction inhibitors for the treatment of cancer” (Cell reports, 2022)

Test system: WM3248 melanoma cells, 486 antibodies
Test: Reverse phase protein arrays (RPPA);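 for RPPA AceCS1.R.V: ratio of treated to vehicle (0 µM) normalized linear protein signal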;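 for RPPA Akt1 pS473.R.V: ratio of treated to vehicle (0 µM) normalized linear protein signal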;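 for RPPA Akt1.R.V: ratio of treated to vehicle (0 µM) normalized linear protein signal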;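 for RPPA Ambra1 pS52.R.C: ratio of treated to vehicle (0 µM) normalized linear protein signal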;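 for RPPA Atg5.R.C: ratio of treated to vehicle (0 µM) normalized linear protein signal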;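 for RPPA Bim.R.V: ratio of treated to vehicle (0 µM) normalized linear protein signal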
Format: cell-based, Human
Details: 10 uM, Average
Excerpt: Pellets were snap frozen in liquid nitrogen and shipped to MD Anderson Cancer Center core RPPA facility for RPPA analysis (Table S5). Three biological replicates for each sample were generated.
Nomenclatures on the RPPA heatmaps: name_of_antibody.species_of_antibody.status_of_antibody. V - antibody validated; C - validation of antibody in progress; Q - antibody nonspecific; E – under evaluation; antibodies raised in M - mouse, G - goat, R - rabbit, or T - rat.

`CN(C)c1cccc(Nc2cc(-c3ccccc3)nc(C3CCNCC3)n2)c1` [ARN22089, N1,N1-dimethyl-N3-(6-phenyl-2-(piperidin-4-yl)pyrimidin-4-yl)benzene-1,3-diamine] was tested, and the “RPPA ATM.R.V” value was 0.927, the “RPPA ATM_pS1981.R.V” value was 1.057 and the “RPPA ATP5A.M.C” value was 0.974. For the same molecule, the “RPPA ATP5H.R.V” value was 1.098, the “RPPA ATR.R.V” value was 1.026 and the “RPPA ATRX.R.C” value was 0.906. The “RPPA ATR_pS428.R.C” value was 0.986, the “RPPA AceCS1.R.V” value was 0.979 and the “RPPA Akt1.R.V” value was 0.907. For the same molecule, the “RPPA Akt1_pS473.R.V” value was 0.954, the “RPPA Akt2.R.V” value was 0.941 and the “RPPA Akt2_pS474.R.C” value was 1.021. For the same molecule, the “RPPA Akt.R.V” value was 0.867, the “RPPA Akt_pT308.R.V” value was 0.981 and the “RPPA Ambra1_pS52.R.C” value was 1.030. The “RPPA Atg3.R.V” value was 0.962, the “RPPA Atg4B.R.C” value was 0.898 and the “RPPA Atg5.R.C” value was 0.891. The “RPPA Atg7.R.V” value was 0.851, the “RPPA Aurora.A.R.C” value was 1.056 and the “RPPA Aurora.ABC_pT288_pT232_pT198.R.C” value was 1.162. For the same molecule, the “RPPA Axl.R.V” value was 0.783, the “RPPA B7.H4.R.C” value was 0.993 and the “RPPA B.Raf.R.C” value was 0.898. The “RPPA B.Raf_pS445.R.V” value was 0.944, the “RPPA BAP1.M.V” value was 0.990 and the “RPPA BCL2A1.R.V” value was 1.335. The “RPPA BMK1.Erk5_pT218_Y220.R.V” value was 0.987, the “RPPA BRCA1.M.C” value was 1.014 and the “RPPA BRD4.R.V” value was 1.015. The “RPPA Bax.R.V” value was 0.964, the “RPPA Bcl2.R.C” value was 1.027 and the “RPPA Bcl.xL.R.V” value was 1.001. For the same molecule, the “RPPA BiP.GRP78.M.C” value was 1.017, the “RPPA Bid.R.C” value was 0.983 and the “RPPA Bim.R.V” value was 0.937. For the same molecule, the “RPPA DNMT1.R.V” value was 1.022, the “RPPA DRP1.R.V” value was 0.982 and the “RPPA DUSP4.R.V” value was 0.898. For the same molecule, the “RPPA DUSP6.R.C” value was 0.937, the “RPPA Dvl3.R.V” value was 0.985 and the “RPPA E.Cadherin.R.V” value was 1.055. The “RPPA EGFR.R.V” value was 0.930, the “RPPA EGFR_pY1068.R.C” value was 1.016 and the “RPPA EGFR_pY1173.R.V” value was 0.991. The “RPPA EMA.M.C” value was 1.130, the “RPPA ENY2.M.C” value was 1.020 and the “RPPA ER.a.R.V” value was 0.940. For the same molecule, the “RPPA ER.a_pS118.R.V” value was 0.975, the “RPPA ERCC5.R.C” value was 0.879 and the “RPPA EVI1.R.V” value was 1.063. The “RPPA Elk1_pS383.R.C” value was 0.992, the “RPPA Enolase.1.R.V” value was 0.999 and the “RPPA EphA2.R.V” value was 1.002. The “RPPA EphA2_pS897.R.C” value was 1.008, the “RPPA EphA2_pY588.R.C” value was 0.983 and the “RPPA Erk5.R.V” value was 0.909. For the same molecule, the “RPPA FABP5.R.C” value was 1.006, the “RPPA FAK.R.C” value was 0.977 and the “RPPA FAK_pY397.R.V” value was 1.056. The “RPPA FANCD2.R.V” value was 1.010, the “RPPA FASN.R.V” value was 0.855 and the “RPPA FGF.basic.R.C” value was 0.941. For the same molecule, the “RPPA FN14.R.C” value was 1.032, the “RPPA FOXM1.R.V” value was 1.022 and the “RPPA FOXO3.R.V” value was 1.030. The “RPPA FRS2.alpha_pY196.R.V” value was 1.286, the “RPPA FTO.R.V” value was 1.004 and the “RPPA Fibronectin.R.V” value was 0.843. For the same molecule, the “RPPA FoxO3a_pS318_S321.R.C” value was 1.028, the “RPPA G6PD.R.V” value was 1.065 and the “RPPA GATA3.M.V” value was 1.016. The “RPPA GATA6.R.V” value was 1.046, the “RPPA GCLC.R.C” value was 0.968 and the “RPPA GCLM.R.V” value was 1.026. For the same molecule, the “RPPA GCN5L2.R.V” value was 0.929, the “RPPA GGPS1.M.V” value was 1.006 and the “RPPA GRB2.R.V” value was 0.910. The “RPPA GRB7.R.V” value was 0.970, the “RPPA GSK.3B.R.C” value was 0.917 and the “RPPA Gab2.R.V” value was 0.984.
